According to article PMC7508583, “Discovery and Preclinical Development of Antigiardiasis Fumagillol Derivatives” (Antimicrobial Agents and Chemotherapy, 2020):
≈ marks a conversion by molar mass, not a printed value. Like-named read-outs stand apart in the source and are kept apart here.

Columns and labels:
in vitro = details: human; for efflux ratio at 120 min, 10 µM: Caco-2, pH 7.4; for Papp at 120 min, 10 µM: Caco-2, pH 7.4, Mean ± SE Papp
From the text: (§1) Next, we tested the permeation of the compounds across polarized Caco-2 cell monolayers, a method that is widely used as an in vitro model of the human small intestinal mucosa to predict the absorption of orally administered drugs ([63], [64]). With noninvasive intestinal infections, there is no need to establish a high plasma concentration. Since a high rate of uptake through the host gut lining could increase compound toxicity, we sought to reduce gut absorption. […] Both apical-to-basal and basal-to-apical permeation values were measured to obtain information about efflux. […] The efflux machinery is currently unknown.
(§2) Passage 36 Caco-2 cells were used. The cells were cultured in Dulbecco’s modified Eagle’s medium (DMEM; 5 ml of 100 mM sodium pyruvate, 5 ml of 100× nonessential amino acids, 5 ml of penicillin-streptomycin, and 100 ml of heat-inactivated fetal bovine serum added to 385 ml of DMEM aseptically and mixed thoroughly), pH 7.4, at 37°C in 5% CO2. DMEM (250 μl) was added to the basal compartment of 96-well multiscreen Caco-2 cell plate consisting of high-pore-density polycarbonate (Millipore) with a 0.4-μm pore size and a 0.11-cm^2 active membrane area. The cells were seeded at a density of 12,000 cells/well (0.16 × 10^6 cells/ml) in the apical wells, with one well containing only medium as blank. The Caco-2 cell plate was placed in a CO2 incubator at 37°C for cell proliferation. On the day of assay, the medium was removed, washed twice with Hanks balanced salt solution (HBSS) buffer supplemented with 2% bovine serum albumin (BSA), pH 7.4, and incubated with the HBSS buffer for 30 min at 37°C. Wells with transepithelial electrical resistance values of greater than 230 Ω · cm^2 were selected for the experiments. […] The assay was performed in duplicate.
(§3) Seventy-five microliters of the test compounds was added to the apical wells, and 250 μl of HBSS buffer with 2% BSA was added to the basal wells. The plate was incubated in a CO2 incubator with shaking on a plate shaker at 150 rpm for 120 min, after which 25 μl of the basal samples was collected and processed.
(§4) Two hundred fifty microliters of test compounds was added to the basal wells, and 75 μl of HBSS buffer with 2% BSA was added to the apical wells. The plate was incubated in a CO2 incubator with shaking on a plate shaker at 150 rpm for 120 min, after which 25 μl of the apical samples was collected and processed.
(§5) For sample processing, a single-point calibration curve in HBSS buffer with 2% BSA was used. Donor samples were diluted 1:1 with HBSS containing 2% BSA, and receiver samples were diluted with 1:1 HBSS buffer and precipitated with 200 μl of acetonitrile containing internal standard. The samples were vortexed for 5 min at 1,000 rpm and centrifuged at 4,000 rpm for 10 min. One hundred microliters of the supernatant was diluted with 200 μl of water and analyzed by LC-MS/MS (with a Shimadzu ultrafast liquid chromatograph and an API 4000 LC-MS/MS system).
(§6) The apparent permeation coefficients (Papp) were calculated as Papp = (dQ/dT) × (1/C0) × (1/A), where dQ is the amount permeated to the receiver compartment of the 96-well plate, dT is the time of compound incubation, C0 is the initial compound concentration in the donor compartment of the well, and A is the surface area of the monolayer.

Caco-2 cell monolayers = assay: in vitro; details: human, Caco-2, 120 min, 10 µM, pH 7.4
From the text: as §1, §2, §3, §4, §5, §6

[1] = test system: G. lamblia GS trophozoites; assay: Mouse giardiasis model efficacy; format: in vivo, Giardia lamblia; details: for ED50: Giardia duodenalis, 96 h; for EC50, 4-day single-daily-dose treatment regimen: Fig. 5
Description: The C57BL/6J mice were infected with G. lamblia GS trophozoites, treated for 4 days, and euthanized as described in Materials and Methods.
Compound efficacy was evaluated in the mature mouse giardiasis model reported previously ([18], [66]). Fifteen 4-week-old C57BL/6J female mice (The Jackson Laboratory, Bar Harbor, ME) were infected with G. lamblia GS or H7 trophozoites. For each experiment, the trophozoites (500,000 trophozoites suspended in 200 μl of TYI-S-33 medium) were administered by oral gavage to 15 mice. […] The remaining 5 untreated mice served as controls. The compounds were administered by oral gavage in 200 μl of TYI-S-33 medium supplemented with 0.5% DMSO. All mice were euthanized on day 7. The University of Maryland College Park IACUC approved the animal studies.
Two inches of the upper small intestine were dissected and washed with 2 ml of medium supplemented with antibiotics to produce axenized cultures (1 mg/ml each piperacillin and moxalactam and 10 μg/ml each vancomycin and polymyxin B, which is a modified mixture compared with that used earlier). The harvested small intestines were opened longitudinally and minced in a petri dish containing 10 ml of ice-chilled medium. The plates were placed on ice for 30 min to allow the trophozoites to detach from the intestine, and the entire content of each petri dish was transferred into a 15-ml glass tube, the volume was adjusted to 14 ml by adding the antibiotic-containing medium, and the tube was vigorously vortexed to separate the trophozoites from the intestine debris. For the following 2 h, the tubes were kept at 37°C to allow trophozoite attachment to the wall of the glass tube, after which the medium containing the intestine debris was decanted and replaced by fresh medium. The tubes were kept at 37°C for another 15 min, followed by a second medium replacement. The tubes were kept at 37°C for 6 days for proliferation. Trophozoite growth was determined once daily by monitoring the ATP content using the ATPlite reagent.
The proliferation measurements were used to calculate growth curves and the trophozoite load of drug-treated mice compared with that of untreated mice. The trophozoite load was quantified by calculating the initial population from the growth curves and fitting the luminescence or the trophozoite counting data to the Malthusian model of exponential growth, Nt = N0e^rt, where Nt is the signal of the population at time t, r is the growth rate, and N0 is the signal of the initial population at the end of treatment. The percentage of the load relative to the N0 for untreated mouse samples was determined. […] The curve was fit with a variable slope using GraphPad Prism (version 8.2.1) software (GraphPad Software Inc., La Jolla, CA).

[2] = test system: G. lamblia GS trophozoites; set-up: method as in PMID 25267663; details: proliferation assay; cited from earlier work
CHO-K1 (CHO) cells = details: cited from earlier work
[3] = 13.7 mg/kg, mouse giardiasis model

| Compound | efflux ratio at 120 min, 10 µM (in vitro) | Papp at 120 min, 10 µM (in vitro; apical to basal) [×10⁻⁶ cm/s] | Papp at 120 min, 10 µM (in vitro; basal to apical) [×10⁻⁶ cm/s] | Caco-2 cell permeation as % of the permeation of fumagillin (Caco-2 cell monolayers) [%] | EC50, 4-day single-daily-dose treatment regimen ([1]; mouse giardiasis model) [mg/kg/day] | also measured |
| --- | --- | --- | --- | --- | --- | --- |
| COC1C(OC(=O)NC(=O)CN2CCOCC2)CCC2(CO2)C1C1(C)OC1CC=C(C)C (centres unmarked) [Compound 3] | 1.95 | 15.8 ± 0.94 | 30.4 ± 4.35 | 62 | – | – |
| CO[C@@H]1[C@H](OC(=O)Nc2ccc(C(=O)O)cc2)CC[C@]2(CO2)[C@H]1[C@@]1(C)O[C@@H]1CC=C(C)C [Compound 9, 4-(((((3R,4S,5S,6R)-5-methoxy-4-((2R,3R)-2-methyl-3-(3-methylbut-2-en-1-yl)oxiran-2-yl)-1-oxaspiro[2.5]octan-6-yl)oxy)carbonyl)amino)benzoic acid] | – | 12.6 ± 0.63 | 23.6 ± 8.14 | 53 | 0.064 | fully curative dose (100% effective dose, ED100) ([1]; C57BL/6J mice infected with G. lamblia GS, oral, once daily for 4 days): 6.6 mg/kg; ED50 ([1]; C57BL/6J mice infected with G. lamblia GS, oral, once daily for 4 days, read-out: ED50): 0.064 mg/kg |
| CO[C@@H]1[C@H](OC(=O)/C=C/C=C/C=C/C=C/C(=O)O)CC[C@]2(CO2)[C@H]1[C@@]1(C)O[C@@H]1CC=C(C)C [Fumagillin, reference compound] | 2.13 | – | – | – | 0.247 | MLC, GS strain [2]: 0.26 µM (≈ 0.119 µg/mL); Papp at 120 min, 10 µM (in vitro; apical to basal, Caco-2, 10 μM, 120 min): 23.7 ± 2.52 ×10⁻⁶ cm/s; Papp at 120 min, 10 µM (in vitro; basal to apical, Caco-2, 10 μM, 120 min): 48.8 ± 9.13 ×10⁻⁶ cm/s; IC50 (CHO-K1 (CHO) cells; read-out: IC50, cytotoxicity toward mammalian CHO cells): > 100 µM; cure of mice [1, 3]: none of the mice were cured; trophozoite load remaining compared with untreated control mice [1, 3]: 7%; ED50 ([1]; po): 0.247 mg/kg |
| Cc1ncc([N+](=O)[O-])n1CCO [Metronidazole, reference compound] | – | – | – | – | – | IC50 (CHO-K1 (CHO) cells; read-out: IC50 CHO, cytotoxicity): 17.3 µM |
